3 compounds from US4018782A, “2,2-Dimethyl-3R-carboxy-6S- acylamido-1-oxa-4-aza-5R-bicyclo[3,2,0]heptan-7-ones” (Queen's University, priority 1974, dated 1977) can be followed below.

The test system of one test is S. lutea. The test is described as follows: antibacterial activity (plate assay) vs S. lutea. The class given is cell-based. As to the method: The oxazoline (74 mg., 0.236 mmole) was dissolved in HMPT (1.5 ml.) and the solution was degassed with dry nitrogen for 0.5 hr. Then 0.83 ml. of a 0.612 M solution of t-BuSLi (0.508 mmole), prepared by method A, was added during 0.5 hr. and the mixture was stirred overnight. […] The characteristic peak of the oxazolinecarboxylic acid, 2-benzyl-6-(1'-carboxy-2'-methyl-prop-1'-enyl)-1-oxa-3,6-diaza-4S,5R-bicyclo [3,2,0] hept-2-ene-7-one, were absent from the spectrum.

Test [1] in a line: antibacterial activity (organism not stated). The class given is cell-based. As to conditions: at levels of 250 mcg./ml.

Structures are written as SMILES.

As to `CC(Oc1ccc(Cl)cc1)C(=O)N[C@@H]1C(=O)N2[C@@H]1OC(C)(C)[C@@H]2C(=O)O` (stereo partly drawn), the “antibacterial activity vs. S. lutea” value in the test with S. lutea is “high antibacterial activity”. For the compound `CC1(C)O[C@@H]2[C@H](N3C(=O)c4ccccc4C3=O)C(=O)N2[C@H]1C(=O)O` [6-phthalimido oxapenicillin], in the test on S. lutea (compared with phthalimidopenicillin), the “antibacterial activity versus S. lutea relative to phthalimidopenicillin” value is “one-tenth the level of phthalimidopenicillin”. For the compound `CC(C)=C(C(=O)O)N1C(=O)[C@H]2N=C(Cc3ccccc3)O[C@H]21` [oxazoline carboxylic acid, 2-benzyl-6-(1'-carboxy-2'-methylprop-1'-enyl)-1-oxa-3,6-diaza-4S,5R-bicyclo [3.2.0] hept-2-en-7-one], the “antibacterial activity at 250 mcg./ml.” value in test [1] was “inactive”.
